Laboratory results from patent EP4667467A1, “PROTAC DEGRADERS OF MLLT1 AND/OR MLLT3” (Dark Blue Therapeutics Ltd, priority 2024, dated 2025).

Target: T1, MLLT1 (Homo sapiens, UniProt Q03111)
T1 construct: endogenous in cells; host or cells: MV4-11 (ATCC CRL-9591)
T1 sequence (Q03111 1-559): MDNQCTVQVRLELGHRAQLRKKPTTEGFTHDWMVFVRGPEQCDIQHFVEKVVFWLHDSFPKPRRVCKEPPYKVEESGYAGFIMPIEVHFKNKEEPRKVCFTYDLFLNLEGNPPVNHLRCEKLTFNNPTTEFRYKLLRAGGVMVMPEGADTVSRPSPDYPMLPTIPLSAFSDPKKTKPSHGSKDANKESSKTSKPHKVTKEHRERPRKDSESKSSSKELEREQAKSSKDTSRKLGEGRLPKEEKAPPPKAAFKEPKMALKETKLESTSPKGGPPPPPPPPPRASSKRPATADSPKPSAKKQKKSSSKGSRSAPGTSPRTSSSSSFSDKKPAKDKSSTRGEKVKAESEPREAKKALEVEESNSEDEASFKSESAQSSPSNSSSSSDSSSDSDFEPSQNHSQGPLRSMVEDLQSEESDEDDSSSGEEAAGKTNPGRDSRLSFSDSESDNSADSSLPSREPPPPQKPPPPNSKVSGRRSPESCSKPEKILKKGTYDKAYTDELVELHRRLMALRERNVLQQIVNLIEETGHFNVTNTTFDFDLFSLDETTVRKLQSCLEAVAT
Experiment: MLLT1 Degradation Assay (JESS automated chemiluminescent detection, MV4-11 cells)
Format: cell-based
Settings: 24h, with respect to DMSO control; for MLLT1 % Degradation @ 0.01 µM: 0.01 µM (10 nM) test compound; for MLLT1 % Degradation @ 0.1 µM: 0.1 µM (100 nM) test compound; for MLLT 1 % Degradation @ 1 µM: 1 µM (1000 nM) test compound
Protocol: MLLT1 degradation efficacy of compounds were tested in an automated chemiluminescent detection system (JESS, Cat# 004-650). […] 10 mM DMSO stocks were prepared, and cells were treated with three concentrations of test compounds viz. 1000, 100 and 10 nM at a final DMSO concentration of 0.1% and incubated for 24h at 37°C, 5% CO2. […] Post run, data were analysed using "Compass for SW" software for chemiluminescent detection. The peak area for each band was used for the calculation of MLLT1 degradation with respect to DMSO control. Data is shown as "MLLT1 % degradation".

Compound	MLLT1 % Degradation @ 0.01 µM	MLLT1 % Degradation @ 0.1 µM	MLLT 1 % Degradation @ 1 µM
CN1CCC[C@@H]1c1cc2cnc(NC(=O)c3ccc(CCC#Cc4cccc5c4CN(C4CCC(=O)NC4=O)C5=O)cc3)cc2[nH]1 (stereo partly drawn) [Example 52, 4-(4-(2-(2,6-dioxopiperidin-3-yl)-1-oxoisoindolin-4-yl)but-3-yn-1-yl)-N-(2-((R)-1-methylpyrrolidin-2-yl)-1H-pyrrolo[3,2-c]pyridin-6-yl)benzamide]	A (Category A: A ≥ 75% degradation)	A (Category A: A ≥ 75% degradation)	B (Category B: 50% ≤ B < 75% degradation)
CN1CCC[C@@H]1c1cc2cnc(NC(=O)c3ccc(OCC#Cc4cccc5c4CN(C4CCC(=O)NC4=O)C5=O)cc3F)cc2[nH]1 (stereo partly drawn) [Example 57, 4-((3-(2-(2,6-dioxopiperidin-3-yl)-1-oxoisoindolin-4-yl)prop-2-yn-1-yl)oxy)-2-fluoro-N-(2-((R)-1-methylpyrrolidin-2-yl)-1H-pyrrolo[3,2-c]pyridin-6-yl)benzamide]	A (Category A: A ≥ 75% degradation)	A (Category A: A ≥ 75% degradation)	A (Category A: A ≥ 75% degradation)
CN1CCC[C@@H]1c1cc2cnc(NC(=O)c3ccc(CCC4CCN(c5cccc6c5C(=O)N(C5CCC(=O)NC5=O)C6=O)CC4)cc3)cc2[nH]1 (stereo partly drawn) [Example 4, 4-(2-(1-(2-(2,6-dioxopiperidin-3-yl)-1,3-dioxoisoindolin-4-yl)piperidin-4-yl)ethyl)-N-(2-((R)-1-methylpyrrolidin-2-yl)-1H-pyrrolo[3,2-c]pyridin-6-yl)benzamide]	B (Category B: 50% ≤ B < 75% degradation)	A (Category A: A ≥ 75% degradation)	A (Category A: A ≥ 75% degradation)
CN1CCC[C@@H]1c1cc2cnc(NC(=O)CCCCCC3CCN(c4cccc5c4C(=O)N(C4CCC(=O)NC4=O)C5=O)CC3)cc2[nH]1 (stereo partly drawn) [Example 43, 6-(1-(2-(2,6-dioxopiperidin-3-yl)-1,3-dioxoisoindolin-4-yl)piperidin-4-yl)-N-(2-((R)-1-methylpyrrolidin-2-yl)-1H-pyrrolo[3,2-c]pyridin-6-yl)hexanamide]		A (Category A: A ≥ 75% degradation)	B (Category B: 50% ≤ B < 75% degradation)
CN1CCC[C@@H]1c1cc2cnc(NC(=O)c3ccc(OCCCC#Cc4cccc5c4CN(C4CCC(=O)NC4=O)C5=O)cc3)cc2[nH]1 (stereo partly drawn) [Example 56, 4-((5-(2-(2,6-dioxopiperidin-3-yl)-1-oxoisoindolin-4-yl)pent-4-yn-1-yl)oxy)-N-(2-((R)-1-methylpyrrolidin-2-yl)-1H-pyrrolo[3,2-c]pyridin-6-yl)benzamide]	A (Category A: A ≥ 75% degradation)	A (Category A: A ≥ 75% degradation)	A (Category A: A ≥ 75% degradation)
CN1CCC[C@@H]1c1cc2cnc(NC(=O)c3ccc(OCC#Cc4cccc5c4CN(C4CCC(=O)NC4=O)C5=O)c(Cl)c3)cc2[nH]1 (stereo partly drawn) [Example 23, 3-chloro-4-((3-(2-(2,6-dioxopiperidin-3-yl)-1-oxoisoindolin-4-yl)prop-2-yn-1-yl)oxy)-N-(2-((R)-1-methylpyrrolidin-2-yl)-1H-pyrrolo[3,2-c]pyridin-6-yl)benzamide]	C (Category C: 25% ≤ C < 50% degradation)	C (Category C: 25% ≤ C < 50% degradation)	C (Category C: 25% ≤ C < 50% degradation)
CN1CCC[C@@H]1c1cc2cnc(NC(=O)CCCCCCNc3cccc4c3C(=O)N(C3CCC(=O)NC3=O)C4=O)cc2[nH]1 (stereo partly drawn) [Example 29, 7-{[2-(2,6-dioxopiperidin-3-yl)-1,3-dioxoisoindol-4-yl]amino}-N-{2-[(2R)-1-methylpyrrolidin-2-yl]-1H-pyrrolo[3,2-c]pyridin-6-yl}heptanamide]	D (Category D: D < 25% degradation)	C (Category C: 25% ≤ C < 50% degradation)	A (Category A: A ≥ 75% degradation)
CN1CCC[C@@H]1c1[nH]c2cc(NC(=O)CCCCCCNc3cccc4c3C(=O)N(C3CCC(=O)NC3=O)C4=O)ncc2c1Cl (stereo partly drawn) [Example 33, N-{3-chloro-2-[(2R)-1-methylpyrrolidin-2-yl]-1H-pyrrolo[3,2-c]pyridin-6-yl}-7-{[2-(2,6-dioxopiperidin-3-yl)-1,3-dioxoisoindol-4-yl]amino}heptanamide]	B (Category B: 50% ≤ B < 75% degradation)	A (Category A: A ≥ 75% degradation)	A (Category A: A ≥ 75% degradation)
CN1CCC[C@@H]1c1cc2cnc(NC(=O)c3ccc(CCC#Cc4cccc5c4n(C)c(=O)n5C4CCC(=O)NC4=O)cc3)cc2[nH]1 (stereo partly drawn) [Example 53, 4-(4-(1-(2,6-dioxopiperidin-3-yl)-3-methyl-2-oxo-2,3-dihydro-1H-benzo[d]imidazol-4-yl)but-3-yn-1-yl)-N-(2-((R)-1-methylpyrrolidin-2-yl)-1H-pyrrolo[3,2-c]pyridin-6-yl)benzamide]	A (Category A: A ≥ 75% degradation)	A (Category A: A ≥ 75% degradation)	B (Category B: 50% ≤ B < 75% degradation)
CN1CCC[C@@H]1c1cc2cnc(NC(=O)c3cccc(OCC#Cc4cccc5c4CN(C4CCC(=O)NC4=O)C5=O)c3)cc2[nH]1 (stereo partly drawn) [Example 58, 3-((3-(2-(2,6-dioxopiperidin-3-yl)-1-oxoisoindolin-4-yl)prop-2-yn-1-yl)oxy)-N-(2-((R)-1-methylpyrrolidin-2-yl)-1H-pyrrolo[3,2-c]pyridin-6-yl)benzamide]	B (Category B: 50% ≤ B < 75% degradation)	A (Category A: A ≥ 75% degradation)	C (Category C: 25% ≤ C < 50% degradation)
CN1CCC[C@@H]1c1cc2cnc(NC(=O)c3ccc(CCCNc4cccc5c4C(=O)N(C4CCC(=O)NC4=O)C5=O)cc3)cc2[nH]1 (stereo partly drawn) [Example 36, 4-(3-{[2-(2,6-dioxopiperidin-3-yl)-1,3-dioxoisoindol-4-yl]amino}propyl)-N-{2-[(2R)-1-methylpyrrolidin-2-yl]-1H-pyrrolo[3,2-c]pyridin-6-yl}benzamide]	A (Category A: A ≥ 75% degradation)	A (Category A: A ≥ 75% degradation)	A (Category A: A ≥ 75% degradation)
CN1CCC[C@@H]1c1cc2cnc(NC(=O)c3ccc(OCC#Cc4cccc5c4CN(C4CCC(=O)NC4=O)C5=O)cc3)cc2[nH]1 (stereo partly drawn) [Example 51, 4-((3-(2-(2,6-dioxopiperidin-3-yl)-1-oxoisoindolin-4-yl)prop-2-yn-1-yl)oxy)-N-(2-((R)-1-methylpyrrolidin-2-yl)-1H-pyrrolo[3,2-c]pyridin-6-yl)benzamide]	A (Category A: A ≥ 75% degradation)	A (Category A: A ≥ 75% degradation)	A (Category A: A ≥ 75% degradation)
CN1CCC[C@@H]1c1cc2cnc(NC(=O)c3ccc(OCC#Cc4cccc5c4CN(C4CCC(=O)NC4=O)C5=O)nc3)cc2[nH]1 (stereo partly drawn) [Example 2, 6-((3-(2-(2,6-dioxopiperidin-3-yl)-1-oxoisoindolin-4-yl)prop-2-yn-1-yl)oxy)-N-(2-((R)-1-methylpyrrolidin-2-yl)-1H-pyrrolo[3,2-c]pyridin-6-yl)nicotinamide]	A (Category A: A ≥ 75% degradation)	A (Category A: A ≥ 75% degradation)	A (Category A: A ≥ 75% degradation)
CN1CCC[C@@H]1c1cc2cnc(NC(=O)c3ccc(-c4cnn(CCCCC#Cc5cccc6c5CN(C5CCC(=O)NC5=O)C6=O)c4)cc3)cc2[nH]1 (stereo partly drawn) [Example 59, 4-(1-(6-(2-(2,6-dioxopiperidin-3-yl)-1-oxoisoindolin-4-yl)hex-5-yn-1-yl)-1H-pyrazol-4-yl)-N-(2-((R)-1-methylpyrrolidin-2-yl)-1H-pyrrolo[3,2-c]pyridin-6-yl)benzamide]	A (Category A: A ≥ 75% degradation)	A (Category A: A ≥ 75% degradation)	B (Category B: 50% ≤ B < 75% degradation)
CN1CCC[C@@H]1c1cc2cnc(NC(=O)c3cccc(CCCNc4cccc5c4C(=O)N(C4CCC(=O)NC4=O)C5=O)c3)cc2[nH]1 (stereo partly drawn) [Example 45, 3-(3-((2-(2,6-dioxopiperidin-3-yl)-1,3-dioxoisoindolin-4-yl)amino)propyl)-N-(2-((R)-1-methylpyrrolidin-2-yl)-1H-pyrrolo[3,2-c]pyridin-6-yl)benzamide]	A (Category A: A ≥ 75% degradation)	A (Category A: A ≥ 75% degradation)	A (Category A: A ≥ 75% degradation)
